{
  "source": "paper PMC8803428",
  "about": "“Pharmacokinetics of Ginsenoside Rb1, Rg3, Rk1, Rg5, F2, and Compound K from Red Ginseng Extract in Healthy Korean Volunteers” (Evidence-based Complementary and Alternative Medicine : eCAM, 2022)",
  "key": {"[1]": {"test": "Stability of the ginsenosides in human plasma (QC samples, LC-MS/MS method validation)", "assay_type": "in vitro ADME", "conditions": "human; for Short-term stability, concentration found: 19 h; for Autosampler stability, concentration found: 34 h; for Long-term stability, concentration found: 50 days", "protocol": "The LC-MS/MS method was validated to determine selectivity, lower limits of quantification (LLOQ), accuracy, precision, recovery, matrix effect, and stability, according to the guideline for validating the bioanalytical method. The selectivity of the method was evaluated by comparison of blank plasma from six different men to the corresponding spiked plasma sample at the level of LLOQ to investigate the potential interferences at the LC chromatographic conditions for ginsenoside analytes and IS. The signal-to-noise ratio (S/N) of the LLOQ sample was at least five times the response compared to the blank samples. Each calibration curve was constructed by plotting the peak area ratio (y) of the analyte to IS against the spiked concentrations (x) of each analyte. Linearity was assessed by weighted (1/x^2) least squares regression analysis. The LLOQ was defined as the lowest concentration on the calibration curve with an S/N ratio of 10, where the precision and accuracy bias were within ±20% by five replicate analyses. The intra- and interday precision and accuracy assessments were performed at four concentrations with five replicates on the same day and three consecutive days, respectively. The acceptance criterion recommended by the guideline of precision and the accuracy was ±15% of the nominal concentration. The recovery of the seven ginsenosides was determined at three QC levels with three replicates by comparing the peak areas of plasma extracts spiked with analytes before extraction with those of the postextraction spiked samples at the same concentration. The matrix effects were investigated by comparing the peak areas of the analytes dissolved in the pretreated blank plasma with the corresponding concentrations prepared in the reconstitution solution with three replicates. The stability of the analytes in human plasma was assessed by analyzing five replicates of plasma samples at low, medium, and high QC levels under four different conditions. Short-term stability was evaluated after the exposure of QC samples to room temperature for 19 h before processing and analysis. The freeze and thaw stability was tested after three repeated cycles of thawing at room temperature and freezing at approximately −70°C. The long-term stability was assessed after storage at approximately −70°C for 50 days. The post-preparative stability was examined after the exposure of processed samples at ambient temperature (stored in an HPLC autosampler) for 34 h."}, "[2]": {"test": "Pharmacokinetics of ginsenosides in plasma after a single oral dose of RG or BRG capsules in healthy Korean men (LC-MS/MS)", "assay_type": "in vivo, human", "conditions": "for half-life: T 1/2; for Tmax: T max", "excerpt": "This study was designed as a randomized, open-label, single-dose, crossover study with washout every 1 week to evaluate the pharmacokinetics and safety of ginsenosides. Subjects were randomly assigned to either the RG or BRG group during the first period of the study (Figure 2). After 1 week of the washout period, other products that were not received in the first period were provided. All enrolled subjects were hospitalized at Bestian Clinical Trial Center on the day before taking RG or BRG. Subjects were provided regular meals, and additional food intake was restricted after the meal. The next day, the subjects who had maintained the fasting state for 10 h took the capsules corresponding to 5 g of RG and BRG orally. Water was restricted for 1 h before and after intake, and food intake was restricted for 4 h after administration. After 4 h, all subjects received a standardized meal. In addition, lying down or sleeping was prohibited for 8 h after oral administration. Blood samples (5 mL) were collected before dosing and at each time point (0, 0.5, 1, 2, 4, 6, 8, 10, 12, and 24 h) after dosing. All blood samples were collected in heparin-treated tubes. The blood samples were promptly centrifuged at 3,000 rpm for 10 min at 4°C, and the plasma samples obtained were stored in a deep freezer at −70 ± 10°C until assay.\nAll analyses were performed using an Agilent 1200 series HPLC system (Agilent) with a Luna Phenyl-Hexyl column (2.0 × 150 mm, 5 μm; Phenomenex, CA, USA). The mobile phase comprised water (solvent A) and acetonitrile (solvent B) containing 0.1% formic acid. The flow rate of the mobile phase was 0.25–0.35 mL/min. The initial condition of 70% solvent A was set to 5% solvent A over 15 min. The content of ginsenosides in human plasma was measured using an API 5500 mass spectrometer (AB Sciex, Foster City, CA, USA) capable of multiple reaction monitoring (MRM). The parent-daughter ion pairs monitored were 845.5 ⟶ 799.6 for Rg1, 1153.6 ⟶ 1107.5 for Rb1, 829.4 ⟶ 783.5 for Rg3, and F2, 811.4 ⟶ 161.0 for Rg5 and Rk1, 667.4 ⟶ 161.0 for CK, and 825.4 ⟶ 779.3 for digoxin as an IS in the negative ion mode. Nitrogen gas was used in the nebulizer and the collision cell. The ion spray voltage was set to 5500 V.\nStandard plasma samples were prepared such that each ginsenoside was in the concentration range of 0.5–100 ng/mL; 10 μL of a standard mixture of six kinds of ginsenosides (Rg1, Rb1, Rg5 + Rk1, F2, and CK) was added to 90 μL of blank human plasma. Rg3 was prepared in the concentration range of 0.2–40 ng/mL. Standard plasma samples (100 μL) were added to 200 μL of methanol containing 50 ng/mL digoxin, an IS. These were mixed for 1 min and then centrifuged at 12,000 rpm for 5 min at 4°C. Then, 100 μL of the supernatant was transferred to an LC vial, and 10 μL was injected into the LC-MS/MS system. Plasma samples stored at −70°C were thawed at room temperature. Samples for LC-MS/MS analysis were pretreated in the same manner as standard plasma samples.\nPlasma concentrations of seven ginsenosides were calculated from calibration curves by calculating the ratio of the peak area of the test substance to the peak area of the IS. The following pharmacokinetic parameters were measured using Phoenix WinNonlin 6.3 (Pharsight Co, CA, USA): time to reach maximum observed plasma drug concentration (Tmax), maximum observed plasma drug concentration (Cmax), area under the plasma drug concentration-time curve from 0 h to the final measured time (AUC(0–t)), area under the plasma drug concentration–time curve from 0 h to infinity (AUC(0–∞)), and terminal elimination half-life (t1/2)."}},
  "data": [
    {"smiles": "CC(C)=CCC[C@](C)(O[C@@H]1O[C@H](CO)[C@@H](O)[C@H](O)[C@H]1O)[C@H]1CC[C@]2(C)[C@@H]1[C@H](O)C[C@@H]1[C@@]3(C)CC[C@H](O[C@@H]4O[C@H](CO)[C@@H](O)[C@H](O)[C@H]4O)C(C)(C)[C@@H]3CC[C@]12C", "note": "[Ginsenoside F2, ginsenoside F2]", "values": [
      {"measurement": "Freeze-thaw stability, concentration found", "setting": "[1]; 1.5 ng/mL", "value": "98.29 ± 4.06", "unit": "%"},
      {"measurement": "Freeze-thaw stability, concentration found", "setting": "[1]; 80 ng/mL", "value": "95.95 ± 1.10", "unit": "%"},
      {"measurement": "Short-term stability, concentration found", "setting": "[1]; 1.5 ng/mL", "value": "99.21 ± 7.70", "unit": "%"},
      {"measurement": "Short-term stability, concentration found", "setting": "[1]; 80 ng/mL", "value": "96.53 ± 4.04", "unit": "%"},
      {"measurement": "Autosampler stability, concentration found", "setting": "[1]; 1.5 ng/mL", "value": "99.02 ± 8.01", "unit": "%"},
      {"measurement": "Autosampler stability, concentration found", "setting": "[1]; 80 ng/mL", "value": "96.29 ± 0.99", "unit": "%"},
      {"measurement": "Long-term stability, concentration found", "setting": "[1]; 1.5 ng/mL", "value": "101.83 ± 3.76", "unit": "%"},
      {"measurement": "Long-term stability, concentration found", "setting": "[1]; 80 ng/mL", "value": "99.02 ± 2.04", "unit": "%"},
      {"measurement": "detection in plasma at the initial time point (0 h) of the second treatment period", "setting": "[2]; in vivo", "value": "did not detect"},
      {"measurement": "AUC(0-t)", "setting": "[2]; male, human, in vivo, po, AUC(0–t)", "value": "74.1 ± 33", "unit": "ng·h/mL"},
      {"measurement": "AUC(0-inf)", "setting": "[2]; male, human, in vivo, po, AUC(0–∞)", "value": "90.7 ± 43", "unit": "ng·h/mL"},
      {"measurement": "Cmax", "setting": "[2]; male, human, in vivo, po, C max", "value": "5.83 ± 2.35", "unit": "ng/mL"},
      {"measurement": "half-life", "setting": "[2]; male, human, in vivo, po", "value": "9.77 ± 7.71", "unit": "h"},
      {"measurement": "Tmax", "setting": "[2]; male, human, in vivo, po", "value": "6.62 ± 1.71", "unit": "h"}
    ]},
    {"smiles": "CC(C)=CCC[C@](C)(O)[C@H]1CC[C@]2(C)[C@@H]1[C@H](O)C[C@@H]1[C@@]3(C)CC[C@H](O[C@@H]4O[C@H](CO)[C@@H](O)[C@H](O)[C@H]4O[C@@H]4O[C@H](CO)[C@@H](O)[C@H](O)[C@H]4O)C(C)(C)[C@@H]3CC[C@]12C", "note": "[Rg3, ginsenoside Rg3]", "values": [
      {"measurement": "Freeze-thaw stability, concentration found", "setting": "[1]; 0.6 ng/mL", "value": "97.73 ± 3.53", "unit": "%"},
      {"measurement": "Freeze-thaw stability, concentration found", "setting": "[1]; 32 ng/mL", "value": "95.33 ± 2.75", "unit": "%"},
      {"measurement": "Short-term stability, concentration found", "setting": "[1]; 0.6 ng/mL", "value": "102.32 ± 2.68", "unit": "%"},
      {"measurement": "Short-term stability, concentration found", "setting": "[1]; 32 ng/mL", "value": "96.32 ± 1.48", "unit": "%"},
      {"measurement": "Autosampler stability, concentration found", "setting": "[1]; 0.6 ng/mL", "value": "102.95 ± 5.52", "unit": "%"},
      {"measurement": "Autosampler stability, concentration found", "setting": "[1]; 32 ng/mL", "value": "97.25 ± 1.45", "unit": "%"},
      {"measurement": "Long-term stability, concentration found", "setting": "[1]; 0.6 ng/mL", "value": "104.15 ± 8.68", "unit": "%"},
      {"measurement": "Long-term stability, concentration found", "setting": "[1]; 32 ng/mL", "value": "99.84 ± 3.12", "unit": "%"},
      {"measurement": "detection in plasma at the initial time point (0 h) of the second treatment period", "setting": "[2]; in vivo", "value": "did not detect"},
      {"measurement": "T 1/2", "setting": "[2]; male, human, in vivo, po", "value": "5.70 ± 0.73^∗ h"},
      {"measurement": "T max", "setting": "[2]; male, human, in vivo, po", "value": "4.23 ± 1.54", "unit": "h"},
      {"measurement": "half-life", "setting": "[2]; male, human, in vivo, po", "value": "5.58 ± 3.63", "unit": "h"},
      {"measurement": "Tmax", "setting": "[2]; male, human, in vivo, po", "value": "3.85 ± 1.28", "unit": "h"}
    ]},
    {"smiles": "CC(C)=CCC[C@](C)(O[C@@H]1O[C@H](CO)[C@@H](O)[C@H](O)[C@H]1O)[C@H]1CC[C@]2(C)[C@@H]1[C@H](O)C[C@@H]1[C@@]3(C)CC[C@H](O)C(C)(C)[C@@H]3[C@@H](O[C@@H]3O[C@H](CO)[C@@H](O)[C@H](O)[C@H]3O)C[C@]12C", "note": "[Rg1, ginsenoside Rg1]", "values": [
      {"measurement": "detection in the plasma samples", "setting": "[2]; after oral RG or BRG", "value": "not detected"}
    ]}
  ]
}
